As a reminder, the mortality is the percentage killed.

This assay concerns potato leafhopper (Empoasca fabae). The assay can be described thus: Test F: control of potato leafhopper on Soleil bean plant, contact and/or systemic. Format: in vivo. Particulars: 144 h, sprayed at 250 ppm, adults on Soleil bean plant, 6 days, 24° C., read-out: control efficacy, very good to excellent: mortality. On the procedure: Test compounds were formulated using a solution containing 10% acetone, 90% water and 300 ppm X-77® Spreader Lo-Foam Formula non-ionic surfactant containing alkylarylpolyoxyethylene, free fatty acids, glycols and isopropanol (Loveland Industries, Inc. Greeley, Colo., USA). The formulated compounds were applied in 1 mL of liquid through a SUJ2 atomizer nozzle with 1/8 JJ custom body (Spraying Systems Co., Wheaton, Ill., USA) positioned 1.27 cm (0.5 inches) above the top of each test unit. Test compounds were sprayed at 250 ppm and/or 50 ppm, and replicated three times. After spraying of the formulated test compound, each test unit was allowed to dry for 1 h and then a black, screened cap was placed on top. The test units were held for 6 days in a growth chamber at 25° C. and 70% relative humidity. Plant feeding damage was then visually assessed based on foliage consumed. […]
Test compounds were formulated and sprayed at 250 ppm and/or 50 ppm, and the tests were replicated three times as described for Test A. After spraying, the test units were allowed to dry for 1 h before they were post-infested with 5 potato leafhoppers (18-21-day-old adults). […] Each test unit was then visually assessed for insect mortality.

Molecules are shown by their SMILES. Bounds are passed on as bounds.

`N#CC1CCN(Cc2cn(-c3cccc(C(F)(F)F)c3)nc2-c2ccc(F)cc2)CC1` [Compound 12, 1-[[3-(4-fluorophenyl)-1-[3-(trifluoromethyl)phenyl]-1H-pyrazol-4-yl]methyl]-4-piperidinecarbonitrile]: the mortality at 250 ppm is at least 80%.

(Values after US9113631B2, “1,3-diaryl-substituted heterocyclic pesticides” (E I DU PONT DE NEMOURS AND COMPANY, priority 2011, dated 2015).)
